Reference: patent US12070505B2, “Targeted peptide-drug conjugates” (priority 2021, dated 2024)
Where two headings read alike, the source gives them in different places. Residues, ends and D or L forms follow the SMILES beside them. Groups on a side chain read outwards from the residue. *: point of attachment. Glutaryl(5-(14-O-Dox)) = COc1cccc2c1C(=O)c1c(O)c3c(c(O)c1C2=O)C[C@@](O)(C(=O)COC(=O)CCCC(=O)*)C[C@@H]3O[C@H]1C[C@H](N)[C@H](O)[C@H](C)O1; βAla = NCCC(=O)O

Legend:
MDA-MB-231 cells [1] = test: FACS cellular uptake with endocytosis inhibitors, MDA-MB-231; assay type: cell-based; details: 5 μM, 3 h
Method: Fluorescence-Activated Cell Sorter (FACS) Analysis of Cellular Uptake in the Presence of Endocytosis Inhibitors. A flow cytometry study was conducted in the presence of endocytosis inhibitors such as nystatin, chlorpromazine, chloroquine, and methyl β-cyclodextrin to determine whether the cellular uptake for the peptide-Dox was endocytosis-dependent. MDA-MB-231 (5×10^5 cells/well) were seeded in the medium 24 h prior to the experiment in six well plates, and after 24 h the medium was changed with Opti-MEM. […] After 3 h incubation, the media containing the compounds were removed. Next, the cells were digested with 0.05% trypsin/EDTA (0.53 mM) for 5 min to remove any artificial surface binding, centrifuged at 2500 RPM for 5 min, and then collected as the precipitant. Then the cells were washed two times with PBS, resuspended in flow cytometry buffer, and transferred to the flow cytometry tubes through the 35 μm Strainer Mesh cap. Finally, the cells were analyzed by flow cytometry (FACSCalibur Becton Dickinson) using the propidium iodide channel and CellQuest software. The data presented were based on the mean fluorescence intensity for 10,000 cells collected. All assays were performed in triplicate.

MES-SA/MX2 cells [2] = test: FACS cellular uptake with endocytosis inhibitors, MES-SA/MX2; assay type: cell-based; details: 5 μM, 3 h
MCF-7 cells = test: MTS cytotoxicity assay of [(WR)8WKβA]-Dox, MCF-7; assay type: cell-based
Method: (§1) Cytotoxic activity of the synthesized conjugate and noncovalent mixtures of cyclic [WR]9+Dox was determined in SK-OV-3, MDA-MB-231, MCF-7, MES-SA/MX2, and H9C2 cells. […] An appropriate growth medium was used for each cell line (for SK-OV-3: McCoy's […] with L-glutamine containing fetal bovine serum (FBS) (10%) and penicillin or streptomycin (1%); for MDA-MB-231 and MCF-7 cells: DMEM/F12 (1:1) (1×) with L-Glutamine and 15 mM HEPES containing FBS (10%) and penicillin or streptomycin (1%), and for MES-SA/MX2 and H9C2 cells: Minimum Essential Medium Eagle with Earle's salts and sodium bicarbonate, without L-glutamine containing FBS (10%), and penicillin or streptomycin (1%)). The cells were seeded in a complete growth medium 24 h prior to the experiment. […] The incubation was continued for 3 h.

H9C2 cells = test: Confocal microscopy uptake in H9C2 (Example 2); assay type: cell-based, rat; details: 5 μM, 24 h
Method: Confocal Microscopy. MDA-MB-231, SK-OV-3, MES-SA/MX2, and H9C2 cells (7×10^4 cells/well) were seeded with a medium on a coverslip 24 h prior to the experiment in six well plates. After 24 h, the medium was changed with opti-MEM. The cells were treated with Dox and peptide-Dox conjugate (5 μM) in opti-MEM for 24 h. After 24 h incubation, the media were removed, and cells were washed three times with PBS in each well. Then, the cells were fixed with 3.7% formaldehyde for 10 min, followed by washing three times with PBS (pH 7.6) for 5 min. DAPI (40 μL) for staining the nuclei was placed on a microscope slide, and it was covered with the coverslip with the cell-attached side facing down. The slides were left standing horizontally in a dark place with airflow to allow faster drying. The cells were photographed using Nikon Instruments A1 Confocal Laser Microscope Series and NIS-Elements software (AR 4.30.02, 64 bit). The scan mode was selected as Galvano. The magnification and resolution were set at 40× and 1024, respectively.

MDA-MB-231 cells [3] = test: Differential extraction of Dox in nuclear and cytoplasmic compartments (HPLC); assay type: cell-based; details: 50 μM; 4 h exposure
Method: Differential Extraction of Dox in Nuclear and Cytoplasmic Compartments. In order to confirm nuclear delivery of peptide-conjugated Dox, in addition to confocal microscopy, a differential nuclear and cytoplasmic extraction was performed. […] The cells were then pelleted at 2000 rpm for 5 min. After removing the supernatant, the cells were resuspended in Dounce buffer containing protease inhibitors. The cell suspension to be used was incubated on ice for 15 min before being spiked with cold 10% NP-40 and vortexed for 10 s. The suspension was centrifuged at 10,000 rpm for 10 min at 4° C. to pellet the nuclei. The supernatant was isolated for cytoplasmic extraction. The nuclear pellet was washed in cold PBS twice and centrifuged to remove the supernatant. The isolated nuclei were then lysed using RIPA buffer containing protease inhibitors. The nuclear and cytoplasmic extractions were analyzed by analytical HPLC to differentially quantify free Dox (or Dox released from the conjugates) and peptide-conjugate Dox using an Agilent Zorbax SB-C18 (4.6×150 mm) column. The column was equilibrated with 0.1% TFA-water (solvent A). The elution was performed at a flow rate of 1 mL/min using a gradient of acetonitrile from 0 to 35% in 50 min, with the absorbance measured at 490 nm.

CCRF-CEM cells = details: 5 μM
Method: Intracellular Hydrolysis. […] Cells were grown with serum-free RPMI medium in 75 cm^2 culture flasks to approximately 70-80% confluence (1.37×10^7 cells/mL). […] Then the cells were incubated at 37° C. After 4 h, the medium containing the conjugate was aspirated, and cells were washed three times with PBS before adding a fresh serum-free medium. The cells were first partitioned/transferred to culture plates (six wells) contained 1.37×10^7 cells per well in 5 mL of medium, then incubated for the indicated time. After incubation, the cells were collected using centrifugation. After centrifugation, the medium was removed by decantation. The cell pellets were washed with ice-cold PBS to remove any remaining medium. The cell pellets were then completely extracted with an equal volume of methanol, chloroform, and isopropanol mixture (4:3:1 v/v/v) and finally filtered through 0.2 μm filters.

in vitro = details: human, 25% human serum
Method: Human serum (250 μL) was diluted by adding sterile water (650 μL) and conjugate stock solution (100 μL) to give a sample with 25% human serum and 5 μM conjugate. The sample was kept at 37° C. in an incubator to mimic human body temperature. At regular time intervals, aliquots (100 μL) were taken and diluted with methanol (200 μL). After centrifugation (7000 RPM) of the mixture for 10 min, the supernatant was analyzed by analytical HPLC at 495 nm, and the major HPLC peaks were analyzed by mass spectrometry. The mobile phase used was acetonitrile/water with 0.1% TFA, with a gradient of 20-45% and a flow rate of 1 mL/min in 50 min. The percentage of intact conjugate and the release of the free drug were plotted against incubation time. The AUC obtained after each run was used to confirm the conjugate's degradation, and t1/2 (the time needed to hydrolyze half of the initial conjugate in human serum) was calculated from the graph plotted as AUC versus incubation time.

MES-SA/MX2 cells [4] = test: MTS cytotoxicity assay of [(WR)8WKβA]-Dox, MES-SA/MX2; details: MES-SA/MX2; for reduction in cell viability: 24 h
Method: as §1

H9C2 myocardium cells = details: 24 h
Method: as §1

Q: Which results are given for `COc1cccc2c1C(=O)c1c(O)c3c(c(O)c1C2=O)C[C@@](O)(C(=O)COC(=O)CCCC(=O)NCCC(=O)NCCCC[C@@H]1NC(=O)[C@H](Cc2c[nH]c4ccccc24)NC(=O)[C@H](CCCNC(=N)N)NC(=O)[C@H](Cc2c[nH]c4ccccc24)NC(=O)[C@H](CCCNC(=N)N)NC(=O)[C@H](Cc2c[nH]c4ccccc24)NC(=O)[C@H](CCCNC(=N)N)NC(=O)[C@H](Cc2c[nH]c4ccccc24)NC(=O)[C@H](CCCNC(=N)N)NC(=O)[C@H](Cc2c[nH]c4ccccc24)NC(=O)[C@H](CCCNC(=N)N)NC(=O)[C@H](Cc2c[nH]c4ccccc24)NC(=O)[C@H](CCCNC(=N)N)NC(=O)[C@H](Cc2c[nH]c4ccccc24)NC(=O)[C@H](CCCNC(=N)N)NC(=O)[C@H](Cc2c[nH]c4ccccc24)NC(=O)[C@H](CCCNC(=N)N)NC(=O)[C@H](Cc2c[nH]c4ccccc24)NC1=O)C[C@@H]3O[C@H]1C[C@H](N)[C@H](O)[C@H](C)O1` [[(WR)8WKβA]-Dox] (cyclo(K([βAla-Glutaryl(5-(14-O-Dox))])WRWRWRWRWRWRWRWRW))?
A: cellular uptake in presence of nystatin and chloroquine (MDA-MB-231 cells [1]): not reduced significantly; cellular uptake in presence of nystatin and chloroquine (MES-SA/MX2 cells [2]): not reduced significantly; reduction of cell proliferation (MCF-7 cells; 1 μM, 24 h): 28%; reduction of cell proliferation (MCF-7 cells; 1 μM, 72 h): 70%; reduction of cell proliferation (MCF-7 cells; 5 μM, 24 h): 55%; reduction of cell proliferation (MCF-7 cells; 5 μM, 72 h): 77%; reduction of cell proliferation (MCF-7 cells; 10 μM, 24 h): 56%; reduction of cell proliferation (MCF-7 cells; 10 μM, 72 h): 77%; uptake in heart cells (confocal microscopy, words) (H9C2 cells): did not show any significant uptake; total concentration of Dox (conjugated and released) in the nucleus (MDA-MB-231 cells [3]): higher than free Dox; free Dox released intracellularly (CCRF-CEM cells; within 12 h): More than 36%; free Dox released intracellularly (CCRF-CEM cells; within 72 h): Approximately 100%; half-life at 5 μM (in vitro): ~6 h; remaining at 3 h, 5 μM (in vitro): 80%; reduction in cell viability (MES-SA/MX2 cells [4]; 1 μM): 64%; reduction in cell viability (MES-SA/MX2 cells [4]; 5 μM): 50%; Dox-resistant cell survival / viability (MES-SA/MX2 cells [4]; 5 μM, 72 h): 8%; reduction in cell viability (MES-SA/MX2 cells [4]; 10 μM): 39%; cytotoxicity (H9C2 myocardium cells; 1 μM and 5 μM): no significant cytotoxicity; cytotoxicity (H9C2 myocardium cells; 10 μM): comparable to Dox
